Measurements published in publication PMC11683478, “Bioprospecting of culturable marine biofilm bacteria for novel antimicrobial peptides” (iMeta, 2024).

Key:
Experiment in all cases: Antibacterial screen at 200 μg/mL (cell density vs control)
Assay type in all cases: cell-based
Conditions in all cases: peptide 200 μg/mL, CAMHB, 5 × 10^5 CFU/mL, 37°C, 12 h, OD600; control (no AMP) = 1; three biological replicates
[1] = tested on: Micrococcus luteus ATCC 4698
Method: (§1) Eight bacterial strains were utilized in the antibacterial experiment. S. aureus ATCC 12600, B. subtilis ATCC 23857, E. coli ATCC 11775, and A. baumannii ATCC 19606 were purchased from Shanghai Beinuo Biology. M. luteus ATCC 4698 and S. bongori ATCC43975 were purchased from Shanghai Beisi Biotechnology. V. owensii ems001 and V. alginolyticus xv22 from the intestines of diseased shrimps were isolated in our laboratory. All strains were cultured in the cation‐adjusted Mueller‐Hinton broth (CAMHB) at 37°C to the logarithmic growth phase (OD600 = 0.5). Then, bacteria were gradient‐diluted using fresh CAMHB to a bacterial density of 5 × 10^5 CFU/mL. Antibacterial experiments were performed in a 96‐well plate with 200 μg/mL final peptide concentration. Four experimental groups were set up, including a blank control (200 μL CAMHB), a negative control (180 μL CAMHB plus 20 μL peptide), a positive control (180 μL bacterial culture plus 20 μL ultrapure water), and an experimental group (180 μL bacterial culture plus 20 μL peptide). Three biological replicates were conducted for each group, and OD600 values were measured after incubation at 37°C for 12 h. Every observed value was removed from the blank control group value. The value of the experimental group was then subtracted from the value of the negative control group therefore eradicating the effect of the peptide on the OD measurement. Student's t‐test allowed the estimation of a notable variation between the experimental and positive groups using a p‐value of 0.05 as the limit. […] The MIC of a peptide against a bacterium was determined as the minimum peptide concentration at which there was no visible bacterial growth.

[2] = tested on: Bacillus subtilis ATCC 23857
Method: as §1

[3] = tested on: Escherichia coli ATCC 11775
Method: as §1

[4] = tested on: Staphylococcus aureus ATCC 12600
Method: as §1

Vibrio owensii ems001 = tested on: Vibrio owensii ems001
Method: as §1

[5] = tested on: Acinetobacter baumannii ATCC 19606
Method: as §1

[6] = tested on: Vibrio alginolyticus xv22
Method: as §1

[7] = tested on: Salmonella bongori ATCC 43975
Method: as §1

Sequence | cell density relative to control, M. luteus ATCC 4698 [1] | cell density relative to control, B. subtilis ATCC 23857 [2] | cell density relative to control, E. coli ATCC 11775 [3] | cell density relative to control, S. aureus ATCC 12600 [4] | cell density relative to control, V. owensii ems001 (Vibrio owensii ems001) | cell density relative to control, A. baumannii ATCC 19606 [5] | cell density relative to control, V. alginolyticus xv22 [6] | cell density relative to control, S. bongori ATCC 43975 [7]
MCRFKCKVRTTITRPVCCWLIFM [Cand-168, chemically synthesized candidate AMP predicted from marine biofilm bacteria] | 1 | 0 | 0.553 | 1 | 0 | 1 | 0.418 | 0.482
MCRWWPDWWHHRWWHCRGCCRFCRG [Cand-111, chemically synthesized candidate AMP predicted from marine biofilm bacteria] | 1 | 1 | 0.669 | 0.202 | 0.357 | 1 | 0.477 | 0.794
MCTIRTCRRSRPHHCSTHC [Cand-101, chemically synthesized candidate AMP predicted from marine biofilm bacteria] | 0.91 | 0 | 0.967 | 0.01 | 1 | 0.879 | 0 | 0.855
MCTRSCRPNLVKC [Cand-47, chemically synthesized candidate AMP predicted from marine biofilm bacteria] | 1 | 1 | 1 | 1 | 1 | 0.895 | 1 | 0.835
MCTSKKKVWRCVAPS [Cand-33, chemically synthesized candidate AMP predicted from marine biofilm bacteria] | 1 | 0.601 | 0.96 | 0.874 | 1 | 0.813 | 0.879 | 1
MFKFFCCIFYMCRIKTH [Cand-18, chemically synthesized candidate AMP predicted from marine biofilm bacteria] | 0 | 0 | 0.004 | 0 | 0.007 | 0.014 | 0 | 0.031
MFSKLVKVLLKALCHVFMKCTFW [Cand-61, chemically synthesized candidate AMP predicted from marine biofilm bacteria] | 1 | 0 | 1 | 0 | 0.001 | 0.884 | 1 | 0.633
MGAVCRMGSLPCLIPRGAIRLG [Cand-198, chemically synthesized candidate AMP predicted from marine biofilm bacteria] | 1 | 1 | 0.844 | 0.817 | 0.904 | 0.765 | 0.891 | 0.827
MGPHWRGPRWGRVGCWNL [Cand-154, chemically synthesized candidate AMP predicted from marine biofilm bacteria] | 0.814 | 0 | 0.622 | 0.038 | 0.004 | 1 | 0.077 | 0.544
MGRISCMWSSSYKCRFNCYF [Cand-20, chemically synthesized candidate AMP predicted from marine biofilm bacteria] | 1 | 1 | 1 | 0.809 | 0.818 | 0.937 | 0.635 | 1
MGTYPKVGNSHWKR [Cand-69, chemically synthesized candidate AMP predicted from marine biofilm bacteria] | 1 | 1 | 1 | 0.819 | 1 | 0.889 | 1 | 0.886
